Assay results reported in US8343912B2, “Antibiotic compositions for the treatment of gram negative infections” (priority 2008, dated 2013).
Entries after “also recorded” stand apart in the source; their conditions may differ. Marks after values point to notes of the source that are not given here. Numbered stars: 1 amine (or outer) side, 2 acyl side, 3 side chain; on linkers, the order of the positions; unused ones are H or OH. Bridge positions count the residues as written; N and C are the ends. Square brackets hold non-standard residues; d marks the D form. Peptide text beside a SMILES is read from it. * marks the point of attachment. Octanoyl(6-Me) = CCC(C)CCCCC(=O)*; NH(2-ClPh) = Clc1ccccc1N*; Dab = NCC[CH](N)C(=O)O; CO = O=C([*:1])[*:2]

Legend:
[1] = system: P. aeruginosa #44; assay: Lung infection in neutropenic mice; type: in vivo; conditions: for Log10 CFU/mL lung homogenate ± SD: lungs at 24 h; for ED−3log10 (dose for 3 log10 reduction in bacterial count vs water): lung infection, sc, Compound 5 value corrected for lot potency 711 μg/mg
Experimental: Infection was induced in normal immunocompetent or neutropenic mice by intranasal inoculation of P. aeruginosa #44. […] At 24 hours post-infection, mice were humanely euthanized and the lungs of the mice were removed, homogenized, serially diluted, and plated on agar, to quantitate the bacterial burden.
All of the test compounds were dissolved in sterile water for administration by subcutaneous (sc) injection. […] A series of dilutions of test compounds were prepared in water.
In the lung infection model using P. aeruginosa #44 as the infecting organism, CD-1 mice were made neutropenic by intraperitoneal (ip) administration with 150 mg/kg cyclophosphamide on day-4, followed by a second ip dose of 100 mg/kg cyclophosphamide on day-1. On day 0 a diluted, exponential-phase growing culture of P. aeruginosa #44 corresponding to 1×10^5 or 2.5×10^8 CFU respectively, in 0.1 mL of sterile saline, was inoculated by the intranasal route in mice. Just prior to inoculation, mice were anaesthetized with 60 mg/kg pentobarbital, ip. The actual concentration of bacteria in the inoculum was confirmed by determination of viable counts by dilution plating on tryptic soy agar plates. The number of CFU of bacteria was determined after an incubation of 16 h at 37° C.
Groups of five mice were used for each dose of the test compounds and the vehicle (water) control group. Each group received sc injections of test compounds or vehicle at 1 hour post-infection, and then at 6 hours post-infection for a total of 2 doses. In each study, there were three to five dose groups per test compound.
Eighteen hours after the last injection, the mice were euthanized by asphyxiation with CO2. The lungs were removed aseptically, homogenized in 4 mL of sterile, distilled water and dilution plated on tryptic soy agar plates to quantify bacterial CFU. The number of CFU of bacteria in lungs was determined after an incubation of 16 hours at 37° C. (the CFU per milliliter of homogenate).
The results were expressed as the geometric mean log10 CFU/mL±the standard deviation. The limit of detection was 10 CFU per mL of lung homogenate. Lungs were considered sterile when no CFU were detected on the agar. The efficacy of the test compounds was assessed by comparing the number of log10 CFU/mL measured in the infected and treated mice with control animals treated with water.
Dose response curves of test compounds were generated for each isolate. Regression lines were generated in Microsoft Excel and used to calculate the dose expected to produce a 3 log10 reduction in bacterial count as compared to water-treated group [ED−3 log 10 (mg/kg, sc, BID)].

[2] = system: E. coli; assay: MIC90, broth microdilution, panel of Gram negative clinical isolates; type: cell-based, Escherichia coli; conditions: 80 strains; some strains multi-drug resistant
Experimental: To evaluate the potency and spectrum of compounds of Formula (I), (i.e., Compounds designated 5 and 6), a study was conducted that put together a panel of 455 Gram negative strains, which included multi-drug resistant clinical isolates selected from various surveillance programs. Table 3A lists the strains that were included in the study and the activity of Compound 5, Compound 6, and colistin (polymyxin E, abbreviated PME). Strains with acquired resistance to colistin and/or carbapenems and/or broad spectrum cephalosporins were pre-selected and included in all organism groups evaluated.
MIC testing was performed according to Clinical and Laboratory Standards Institute (CLSI) M7-A7 (2006) broth microdilution methods. Unless otherwise indicated, MIC values are provided in units of micrograms per milliliter.
One day prior to testing, individual colonies were isolated by streaking onto rich, non-selective Tryptic Soy agar with 5% lysed sheeps blood (TSAB) with incubation at 35-37° C. for 18-24 hours.
Cultures were prepared by touching 3-5 colonies into 3 mL of Cation adjusted Mueller Hinton Broth (caMHB) in a 14 mL tube (CaMHB was prepared and sterilized according to manufacturer's specifications). Cultures were grown at 37° C. 200 rpm for approximately four hours prior to density adjustment for addition to the MIC assay.
OD600 of growing cultures was measured and adjusted to approximately 10^5 colony forming units per mL (CFU/mL) in caMHB for MIC inoculation (approximately OD600 0.001).
Diluted cultures were used to inoculate 50 μL per well in broth microdilution assays (final volume 100 μl per well; compounds were prepared in two-fold dilutions).
Plates were incubated 16-20 hrs at 37° C., with shaking at 200 rpm.
OD600 was determined for all wells. Growth was defined as OD600>0.1. MICs were defined as the lowest concentration producing no visible turbidity (OD600<0.1).

[3] = system: cynomolgus monkeys; assay: Comparative 7 day repeat dose safety study, renal toxicity; type: in vivo, cynomolgus monkey; conditions: for renal histologic findings: IV infusion; for nephrotoxicity compared with polymyxin B: equivalent antibacterial activity doses (75,000 to 112,500 IU/kg), FIG. 2
Experimental: A comparative 7 day repeat dose safety study in cynomologous monkeys between polymyxin B and Compound 5 was performed.
Animals were 2.52 kg to 3.77 kg and were 4.2 to 5.7 years old. During acclimation, a chronic femoral intravenous catheter was implanted into all animals to permit continuous infusion. The femoral vein catheter was routed subcutaneously to exit through a prepared incision in the interscapular region. Animals were fitted with jackets connected to flexible stainless steel tethers that protected the catheters.
Monkeys were dosed twice or three times daily for seven days with control article (0.9% Sodium Chloride for Injection, USP), 25000 IU/kg Compound 5, 37500 IU/kg Compound 5, or 37500 IU/kg PMB (Alpharma, lot number A1411079). Each administration was given via a targeted 30-minute intravenous infusion.
The following parameters were evaluated: daily clinical observations and qualitative food consumption, body weight (twice prior to the first dosing and at necropsy), urinalysis, hematology, coagulation, serum chemistry, toxicokinetics, gross pathology, organ weights, and histopathology of the kidneys and injection sites, and of the liver and sciatic nerves of control and high dose groups. Animals were evaluated through Study Day 7 and then terminated.
FIG. 2 is a scatter plot showing nephrotoxicity data measured as a cumulative score based upon tubular degeneration, tubular regeneration, tubular dilatation, and tubular casts. Each category was scored on a basis from 0 to 4 based on the severity of each finding.
For comparison of Compound 5 and polymyxin B, the nephrotoxicity was measured as a cumulative score based upon tubular degeneration, tubular regeneration, tubular dilatation, and tubular casts. Each category was scored on a basis from 0 to 4 based on the severity of each finding and individual monkeys are represented in the FIG. 2.

[4] = 4.0 mg/kg BID sc, 1 and 6 h post-infection, water control 6.53

Compound | Log10 CFU/mL lung homogenate ± SD [1, 4] [Log10 CFU/mL] | Log10 CFU/mL lung homogenate ± SD ([1]; 8.0 mg/kg BID sc) [Log10 CFU/mL] | Log10 CFU/mL lung homogenate ± SD ([1]; 12.0 mg/kg BID sc) [Log10 CFU/mL] | Log10 CFU/mL lung homogenate ± SD ([1]; 16.0 mg/kg BID sc) [Log10 CFU/mL] | Log10 CFU/mL lung homogenate ± SD ([1]; 20.0 mg/kg BID sc) [Log10 CFU/mL] | ED−3log10 (dose for 3 log10 reduction in bacterial count vs water) [1] | MIC90 E. coli [2] [micrograms/mL] | renal histologic findings ([3]; 75,000 IU/kg/day, 7 days) | renal histologic findings ([3]; 112,500 IU/kg/day, 7 days) | nephrotoxicity compared with polymyxin B [3] | nephrotoxicity compared with polymyxin B ([3]; listed as compound 5) | serum creatinine and BUN concentrations ([3]; 75,000 IU/kg/day, 7 days) | serum creatinine and blood urea nitrogen concentrations ([3]; 112,500 IU/kg/day, 7 days)
CC(C)C[C@@H]1NC(=O)[C@@H](Cc2ccccc2)NC(=O)[C@H](CCN)NC(=O)[C@@H](NC(=O)[C@H](CCN)NC(=O)[C@@H](NC(=O)[C@H](CCN)NC(=O)Nc2ccccc2Cl)[C@@H](C)O)CCNC(=O)[C@H]([C@@H](C)O)NC(=O)[C@H](CCN)NC(=O)[C@H](CCN)NC1=O [Compound 5, (S)-4-amino-N-((2S,3R)-1-((S)-4-amino-1-oxo-1-((3S,6S,9S,12S,15R,18S,21S)-6,9,18-tris(2-aminoethyl)-15-benzyl-3-((R)-1-hydroxyethyl)-12-isobutyl-2,5,8,11,14,17,20-heptaoxo-1,4,7,10,13,16,19-heptaazacyclotricosan-21-ylamino)butan-2-ylamino)-3-hydroxy-1-oxobutan-2-yl)-2-(3-(2-chlorophenyl)ureido)butanamide] ({NH(2-ClPh)-CO}-[Dab]T[Dab][Dab][Dab][dF]L[Dab][Dab]T; lactam 4-C) | 5.49 ± 1.27 | 4.86 ± 1.18 | 4.13 ± 1.46 | 2.56 ± 0.34 | 2.51 ± 0.70 | 9.05^b mg/kg, BID | 2 | very minimal histologic changes | increases in numbers and severity of cortical and medullary tubules containing necrotic or degenerative cells | notably less severe nephrotoxicity; also recorded: markedly less nephrotoxic | reduced renal toxicity |  | 
CCC(C)CCCCC(=O)NC(CCN)C(=O)NC(C(=O)NC(CCN)C(=O)NC1CCNC(=O)C(C(C)O)NC(=O)C(CCN)NC(=O)C(CCN)NC(=O)C(CC(C)C)NC(=O)C(Cc2ccccc2)NC(=O)C(CCN)NC1=O)C(C)O (stereo not shown) [Polymyxin B, polymyxin B, reference compound] ({Octanoyl(6-Me)}-[Dab]T[Dab][Dab][Dab]FL[Dab][Dab]T; lactam 4-C; configuration not given here) | 6.48 ± 1.59 | 5.73 ± 1.92 | 3.47 ± 1.16 | 2.88 ± 1.07 | 2.71 ± 1.09 | 12.97 mg/kg, BID | 2 | renal tubular histology similar to findings from animals receiving 112,500 IU/kg/day of Compound 5 | involvement of a majority of cortical and some medullary tubules containing necrotic or degenerate cells |  |  | mild increases | elevations
